Data on 17 compounds can be found in paper PMC11270734 (ACS Omega, 2024).

SMILES strings stand for the structures.

One may read the IC50 as the concentration at which inhibition is half-maximal. What is called CC50 is the concentration at which the toxic effect on the cells reaches its halfway point. Higher therefore signals lower toxicity to the cells.

Data set [1] concerns chloroquine-sensitive P. falciparum (3D7 strain). Format: cell-based. The settings on record: Plasmodium falciparum, 3D7, 48 h, read-out: MEAN IC50 ± SE.
A further data set is described as follows: Cytotoxicity, MTT assay. The class given is cell-based. The settings on record: human, HEK-293 cells. On the technique in general: Tetrazolium assays rely on reduction of a dye to a coloured formazan, in cell work by metabolically active cells.

On to `O=C(c1ccccc1)N1CCC2(CC1)OOC1(CCCCC1)OO2` [3b], for which the IC50 in data set [1] came out at 17.9 ± 1.96 nM. In the data set “Cytotoxicity, MTT assay”, the CC50 at 72 h was more than 100 µg/mL.

With `O=C(c1ccccc1)N1CCC2(CC1)OOC1(CCCCCC1)OO2` [3c], in data set [1], the half-inhibitory concentration (IC50) was 21.9 ± 1.79 nM. Further, in “Cytotoxicity, MTT assay”, the CC50 at 72 h is more than 100 µg/mL.

For `O=C(c1ccccc1)N1CCC2(CC1)OOC1(OO2)C2CC3CC(C2)CC1C3` [3d], in data set [1], the half-maximal inhibitory concentration (IC50) is 7.28 ± 0.57 nM. Moreover, in the data set “Cytotoxicity, MTT assay”, the CC50 at 72 h was more than 100 µg/mL.

Turning to `CC1(C)OOC2(CCN(C(=O)c3ccccc3)CC2)OO1` [3e], the IC50 in data set [1] was 29.9 ± 1.28 nM. Moreover, the CC50 at 72 h in the data set “Cytotoxicity, MTT assay” is more than 100 µg/mL.

For `CCC1(C)OOC2(CCN(C(=O)c3ccccc3)CC2)OO1` [3f], the IC50 in data set [1] came to 42.5 ± 3.04 nM. In the data set “Cytotoxicity, MTT assay”, this compound returned a CC50 at 72 h of more than 100 µg/mL.

In the case of `CCCC1(C)OOC2(CCN(C(=O)c3ccccc3)CC2)OO1` [3g], the IC50 in data set [1] was 43.4 ± 2.38 nM. In “Cytotoxicity, MTT assay”, the CC50 at 72 h is more than 100 µg/mL.

Consider `CC(C)C1(C)OOC2(CCN(C(=O)c3ccccc3)CC2)OO1` [3h], for which the IC50 in data set [1] is 41.2 ± 2.33 nM. Moreover, the CC50 at 72 h in the data set “Cytotoxicity, MTT assay” is more than 100 µg/mL.

In the case of `CCCCC1(C)OOC2(CCN(C(=O)c3ccccc3)CC2)OO1` [3j], the IC50 in data set [1] was 17.5 ± 1.24 nM. The compound also yielded a CC50 at 72 h in “Cytotoxicity, MTT assay” of more than 100 µg/mL.

Take `CC(C)CC1(C)OOC2(CCN(C(=O)c3ccccc3)CC2)OO1` [3k]: in data set [1], the concentration for half-maximal inhibition (IC50) was 18.9 ± 2.12 nM. This compound also registered a CC50 at 72 h in the data set “Cytotoxicity, MTT assay” of more than 100 µg/mL.

With `CCCCCC1(C)OOC2(CCN(C(=O)c3ccccc3)CC2)OO1` [3l], the IC50 in data set [1] is 16.7 ± 1.93 nM. For the same compound, the CC50 at 72 h in the data set “Cytotoxicity, MTT assay” was more than 100 µg/mL.

For the compound `CCC1(CC)OOC2(CCN(C(=O)c3ccccc3)CC2)OO1` [3m], the IC50 in data set [1] is 17.5 ± 1.59 nM. In addition, the CC50 at 72 h in the data set “Cytotoxicity, MTT assay” is more than 100 µg/mL.

Turning to `CCCC1(CCC)OOC2(CCN(C(=O)c3ccccc3)CC2)OO1` [3o], in data set [1], the IC50 is 17.3 ± 1.78 nM. For the same compound, the CC50 at 72 h in the data set “Cytotoxicity, MTT assay” is more than 100 µg/mL.

For `CC1(c2ccccc2)OOC2(CCN(C(=O)c3ccccc3)CC2)OO1` [3p], the IC50 in data set [1] is 16.3 ± 0.93 nM. In addition, the CC50 at 72 h in “Cytotoxicity, MTT assay” was more than 100 µg/mL.

As to `CC1(c2ccc(Cl)cc2)OOC2(CCN(C(=O)c3ccccc3)CC2)OO1` [3q], in data set [1], the IC50 was 11.8 ± 0.8 nM. This compound also yielded a CC50 at 72 h in “Cytotoxicity, MTT assay” of more than 100 µg/mL.

As to `CC1(c2ccc(C#N)cc2)OOC2(CCN(C(=O)c3ccccc3)CC2)OO1` [3r], the IC50 in data set [1] turned out to be 15.7 ± 0.78 nM. The same compound displayed a CC50 at 72 h in the data set “Cytotoxicity, MTT assay” of more than 100 µg/mL.

`O=Cc1ccc(C(=O)N2CCC3(CC2)OOC2(OO3)C3CC4CC(C3)CC2C4)cc1` [3u]: the IC50 in data set [1] is 6.35 ± 0.55 nM. For the same compound, the CC50 at 72 h in “Cytotoxicity, MTT assay” is more than 100 µg/mL.

Compound `C[C@@H]1CC[C@H]2[C@@H](C)C(=O)O[C@@H]3O[C@@]4(C)CC[C@@H]1[C@]32OO4` [artemisinin, reference compound] displayed a CC50 at 72 h in “Cytotoxicity, MTT assay” of more than 100 µg/mL.
